Laboratory results from patent publication US6548540B2, “Method of treating cancer using dithiocarbamate derivatives” (Charlotte-Mecklenburg Hospital Authority, priority 1998, dated 2003).

How the values were obtained:
Type in all cases: cell-based, human
M1619 melanoma cells [1] = assay: Apoptosis by TdT 3'-OH fluorescein end-labeling of DNA fragments; details: 5 μM disulfiram; 15 hours
Experimental: To determine whether disulfiram induced apoptosis, cells grown to confluence on 35 mm Petri dishes or on glass slides were treated with disulfiram or DMSO as vehicle. Apoptosis was studied by terminal deoxynucleotidyl transferase (TdT) dependent 3′-OH fluorescein end-labeling of DNA fragments, using a Fluorescein-FragEL™ DNA fragmentation detection kit (Oncogene Research Products, Cambridge, Mass.). Apoptosis was also studied by visually assessing endonuclease dependent DNA fragmentation on ethidium bromide-stained agarose gels.
In FIG. 5A, M1619 melanoma cells treated with DMSO vehicle. In FIG. 5B, M1619 melanoma cells treated with 5 μM disulfiram. […] Cells were grown to confluence on 35 mm Petri dishes or on glass slides and treated for 15 hours with disulfiram or DMSO as vehicle. Apoptosis was studied by terminal deoxynucleotidyl transferase (TdT) dependent 3′-OH fluorescein end-labeling of DNA fragments, using a Fluorescein-FragEL™ DNA fragmentation detection kit (Oncogene Research Products, Cambridge, Mass.).

p53 = assay: Immunoblot for p53; details: cell lines studied; data not shown
Experimental: Cells were lysed and proteins were isolated and quantitated by immunoassay as previously detailed using 2 μg/ml of primary rabbit polyclonal antibodies against human bcl-2, p53, p21^WAF1/CiP1, cyclin A and cyclin B1, and peroxidase-labeled donkey polyclonal anti-rabbit IgG. Cells were placed on ice, washed twice with cold DPBS, scraped into 0.5 ml boiling buffer (10% [vol/vol] glycerol and 2% [wt/vol] sodium dodecyl sulfate [SDS] in 83 mM Tris, pH 6.8) and sheared by four passages through a pipette. Aliquots were removed for protein determination, using the BCA protein assay (Pierce). After 10% β-mercaptoethanol and 0.05% bromophenol blue were added, lysates were boiled for 5 min and stored at −80° C. until immunoblotting was performed. Proteins in defrosted samples were separated by SDS-polyacrylamide gel electrophoresis on 12% polyacrylamide gels (15 μg protein/lane) and electrotransferred to 0.45 μm Hybond ECL nitrocellulose membranes (Amersham Life Sciences) using the wet transblot method in transfer buffer (0.025 M Tris, 0.192 M glycine, 2.6 mM SDS, and 20%[vol/vol] methanol; pH 8.8) at 100 volts for 1 hour. […] Immunoblots were rinsed again as above and detected via an enhanced chemiluminescence method (ECL Western blotting detection system, Amersham Life Science, Buckinghamshire, England). […]

M1619 melanoma cells [2] = assay: Intracellular copper by plasma emission spectroscopy; details: 6 hours, ng copper/ml of hydrolysate
Experimental: Finally, a number of dithiocarbamate effects on cells have been attributed to increasing the intracellular levels of copper ions. To further probe the role of copper in mediating cytotoxicity from disulfiram, cells were cultured with or without addition of the impermeate Cu^2+ chelator bathocuprioinedisulfonic acid (BCPS, 100 μM) added to medium to sequester Cu^2+ in the extracellular compartment. Cells were also treated 12 hours with various concentration of disulfiram (0.625 to 5.0 μM) and intracellular copper levels were measured as outlined below.
Cells were cultured in 12-well plastic tissue culture plates at an initial plating density of 50,000 cells/well, grown to confluence and treated with disulfiram or vehicle DMSO as outlined above. Media was removed and cells were washed twice with DPBS. Cells were then scraped into 1.0 ml of 3N HCl/10.0% trichloroacetic acid and hydrolyzed at 70° C. for 16 hours. The hydrolysate was centrifuged at 600 gm for 10 minutes to remove debris and copper was measured in the supernatant using inductively coupled plasma emission spectroscopy (Model P30, Perkin Elmer, Norwalk, Conn.) at wavelengths of […] and 224.700 nm. To minimize metal contamination, plasticware rather than glassware was used in these experiments, and double-distilled, deionized water was used for all aqueous media. Results are reported as ng copper/ml of hydrolysate.
M1619 melanoma cells were cultured at a density of 50,000 cells/well in 24 well plates in the presence of 10% FBS and grown to confluence. Disulfiram or DMSO vehicle (5 μl/ml) was added at the concentrations indicated, and cells were incubated an additional 6 hours. Supernatant was removed from cells and monolayers were washed twice with DPBS. Cells were scraped into 1.0 ml 3 N HCL/10% trichloroacetic acid and hydrolyzed at 70° C. for 16 hours. After centrifugation at 600 g×10 min, copper was measured using inductively coupled plasma emission spectroscopy at wavelengths of 324.754 and 224.700 nm. Replicates of four are reported. To minimize metal contamination, plastic ware rather than glass was used in experiments, and double-distilled, deionized water was used for all aqueous media. ^Ap<0.01 compared to DMSO control; ^Bp<0.001 compared to DMSO control.

[3] = tested on: H520 lung carcinoma cells; assay: Trypan blue cytotoxicity, H520; details: 0.625 μM disulfiram; 36 hours
Experimental: To assess for cytotoxicity, cells were plated at a density of 50,000 per well on 24 well plates and grown for 24 hours. Disulfiram was then added. After an additional 36 hours, medium was removed and replaced with DPBS containing 0.1% trypan blue. Cell death was assessed by counting the average number of trypan blue positive cells per 10×field in 5 random fields for 4 separate wells.

CCN(CC)C(=S)SSC(=S)N(CC)CC [Disulfiram, tetraethylthiuram disulfide]
3'-OH fluorescein end-labeling of DNA fragments (apoptosis) (M1619 melanoma cells [1]): markedly increases
expression of p53 (p53): no consistent effect
Intracellular Copper (M1619 melanoma cells [2]; FBS + 0.625 μM DS): 76 ± 11 ng/mL
Intracellular Copper (M1619 melanoma cells [2]; FBS + 1.25 μM DS): 102 ± 5^A ng/ml
Intracellular Copper (M1619 melanoma cells [2]; FBS + 2.5 μM DS): 160 ± 17^A ng/ml
Intracellular Copper (M1619 melanoma cells [2]; FBS + 5.0 μM DS): 195 ± 3^B ng/ml
trypan blue positive cells [3]: 94±18 trypan blue positive cells per well
